Test results taken from ChEMBL document CHEMBL1201862, “PubChem BioAssay data set” (2004).
Active and inactive are the calls of the source. Cut-off read from the data, not from the text of the source, for most assays here: actives have a measured EC50 and inactives only a lower limit.

Experiments:
[1] = biological target: FAD-linked sulfhydryl oxidase ALR (Homo sapiens, UniProt P55789); assay: ALR-catalysed DTT oxidation blockers – biochemical, H2O2 detection, luminescence, cherry-pick, dose response (AID 493248)
[2] = biological target: T1, Heat shock factor protein 1 (Mus musculus, UniProt P38532); assay: enhancement of HSF1-driven luciferase signal – cell-based, NIH3T3, luminescence, dose retest, confirmation (AID 435004); format: functional;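 note: stress induced by proteasome inhibitor MG132 added 30 min after compound; luciferase reporter driven by HSF1 response element in NIH3T3 cells; actives raise luminescence as potentiators of the MG132 stress response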
T1 sequence (P38532 whole entry): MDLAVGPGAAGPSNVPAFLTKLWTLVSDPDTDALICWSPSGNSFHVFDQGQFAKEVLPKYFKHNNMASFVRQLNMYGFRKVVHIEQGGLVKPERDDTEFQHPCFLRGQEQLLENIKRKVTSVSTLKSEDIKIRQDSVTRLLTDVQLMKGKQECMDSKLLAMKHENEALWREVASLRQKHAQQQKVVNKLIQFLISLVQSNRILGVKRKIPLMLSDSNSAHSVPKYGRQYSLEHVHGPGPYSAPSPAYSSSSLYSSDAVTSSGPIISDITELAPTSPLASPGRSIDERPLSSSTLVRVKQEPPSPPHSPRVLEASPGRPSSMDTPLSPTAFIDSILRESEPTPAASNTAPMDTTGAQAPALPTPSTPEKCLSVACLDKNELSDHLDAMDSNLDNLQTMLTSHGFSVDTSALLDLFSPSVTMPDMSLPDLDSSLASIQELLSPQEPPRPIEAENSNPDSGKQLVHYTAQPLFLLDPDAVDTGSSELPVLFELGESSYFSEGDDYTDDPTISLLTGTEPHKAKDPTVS

[3] = NIH3T3 cell viability loss – ATP luminescence, mouse fibroblasts, counter-screen, dose response (AID 2010); format: functional, cell-based;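 note: cells exposed to compound for about 90 hours before reading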
[4] = Trypanosoma cruzi growth suppression in host cells – NIH3T3 host cells, beta-gal luminescence, confirmation (AID 2044); format: functional, cell-based;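 note: intracellular parasites grown in NIH/3T3 mouse fibroblasts as host cells; luminescent beta-galactosidase reporter signal from transgenic T. cruzi replicating inside host cells; inhibitors lower the luminescence signal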
[5] = biological target: T2, Corticotropin-releasing factor receptor 2/Corticotropin-releasing factor-binding protein (Homo sapiens, UniProt P24387+Q13324); assay: activators of CRF receptor 2 with binding protein – uHTS hits, confirmation (AID 602473); format: functional; settings: read-out: EC50_Mean
T2 sequence (Q13324 whole entry): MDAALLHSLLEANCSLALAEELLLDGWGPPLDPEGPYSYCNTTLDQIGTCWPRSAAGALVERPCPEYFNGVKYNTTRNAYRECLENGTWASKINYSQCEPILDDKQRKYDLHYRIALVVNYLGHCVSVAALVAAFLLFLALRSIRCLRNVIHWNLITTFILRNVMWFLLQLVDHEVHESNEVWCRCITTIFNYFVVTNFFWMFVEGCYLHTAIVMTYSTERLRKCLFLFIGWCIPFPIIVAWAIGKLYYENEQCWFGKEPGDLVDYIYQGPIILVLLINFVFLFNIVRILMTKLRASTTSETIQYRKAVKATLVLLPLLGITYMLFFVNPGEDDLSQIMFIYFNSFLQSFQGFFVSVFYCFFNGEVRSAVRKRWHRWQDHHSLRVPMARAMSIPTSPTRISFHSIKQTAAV
T2 sequence (P24387 whole entry): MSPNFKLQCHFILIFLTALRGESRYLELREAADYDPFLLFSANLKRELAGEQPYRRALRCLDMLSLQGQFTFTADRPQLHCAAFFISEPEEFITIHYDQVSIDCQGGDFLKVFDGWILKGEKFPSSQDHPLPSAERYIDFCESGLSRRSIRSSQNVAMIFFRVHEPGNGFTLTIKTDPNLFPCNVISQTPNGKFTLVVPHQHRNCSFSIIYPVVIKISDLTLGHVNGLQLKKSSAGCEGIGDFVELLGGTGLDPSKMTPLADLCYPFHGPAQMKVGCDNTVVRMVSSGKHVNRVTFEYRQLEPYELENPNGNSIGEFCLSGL

[6] = biological target: T2, Corticotropin-releasing factor receptor 2/Corticotropin-releasing factor-binding protein; assay: Dose Response confirmation of uHTS hits for small molecule antagonists of the CRF-binding protein and CRF-R2 receptor complex.; format: functional; settings: read-out: IC50_Mean
[7] = biological target: T1, Heat shock factor protein 1; assay: decrease of HSF1-responsive luciferase luminescence – cell-based, NIH3T3, dose retest, confirmation (AID 2382); format: functional;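 note: NIH3T3 fibroblasts with HSF1-driven luciferase reporter stressed by proteasome inhibitor MG132; luminescence from HSF1-driven luciferase expression after 8 hours of MG132 stress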
[8] = fluconazole-exposed Candida albicans growth modulators – fluorescence, retest, confirmation (AID 2467); format: functional, cell-based
[9] = NIH-3T3 fibroblast cytotoxicity, dose response, cytotoxicity control, cell-based, fluorescence, Alamar Blue, secondary assay (AID 2327); format: functional;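 note: NIH-3T3 mouse fibroblasts cultured with fluconazole at 8 µg/mL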

FAD-linked sulfhydryl oxidase ALR, sequence (P55789 whole entry): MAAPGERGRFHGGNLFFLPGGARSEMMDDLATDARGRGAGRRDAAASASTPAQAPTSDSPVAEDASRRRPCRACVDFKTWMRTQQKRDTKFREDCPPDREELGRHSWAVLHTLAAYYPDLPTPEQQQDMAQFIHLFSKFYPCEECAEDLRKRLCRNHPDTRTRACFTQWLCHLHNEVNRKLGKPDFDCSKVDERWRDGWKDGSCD

| Compound | AC50 [1] | EC50 [2] | EC50 [7] | also measured |
| --- | --- | --- | --- | --- |
| Cc1ccccc1NS(=O)(=O)c1cccc2nonc12 | 8.51 µM (active) |  |  |  |
| COc1cc(NC(=O)COC(=O)c2ccc(C)c(S(=O)(=O)N3CCCCC3)c2)c(C)cc1[N+](=O)[O-] |  | > 260 µM (inactive) |  |  |
| Cn1c(S)nnc1CCNC(=O)c1ccc(Cl)cc1 | 1.54 µM (active) |  |  |  |
| Cc1cccc(N2CCN(c3cccc(C)c3)C2c2cccnc2)c1 |  | > 260 µM (inactive) |  | EC50 [3]: 4.39 µM (active); EC50 [4]: 165 nM (active) |
| O=C(Nc1ccccc1)C1Cc2ccccc2CN1C(=O)c1ccco1 (centres undefined) | 12.9 µM (active) |  |  |  |
| NC(=O)c1nn(-c2ccccc2)nc1NC(=O)CN1CCCCC1 |  | > 260 µM (inactive) |  |  |
| CC(C)CN(CC(C)C)C(S)=NC1CCCCC1 |  |  | 17 µM (active) | EC50 [5]: > 53 µM (inactive); IC50 [6]: > 47.1 µM (inactive) |
| Cc1ccc(-c2nn(C)c(=O)c3ccccc23)cc1S(=O)(=O)NCCN(C)C |  |  | > 195 µM (not active) |  |
| O=C(NC(=S)Nc1ccc2oc(=O)ccc2c1)c1cc2ccccc2o1 |  |  | > 195 µM (not active) |  |
| O=C(C1CCCO1)N1CCC2(CC1)OCCO2 (centres undefined) |  |  | > 195 µM (not active) |  |
| CN1CCC(=NNc2ccc(S(=O)(=O)N3CCOCC3)cc2[N+](=O)[O-])CC1 |  | > 260 µM (inactive) |  |  |
| CCC1CCCCN1C(=O)c1cc2c(=O)n3cccc(C)c3nc2s1 (centres undefined) |  |  | > 195 µM (not active) |  |
| Cc1nonc1OCCNCCNc1ccc([N+](=O)[O-])cc1Cl |  | > 260 µM (inactive) |  |  |
| CN(C)C=O.COc1ccc(/C=C/c2nc3ccccc3c(=O)n2-c2cccc(C(=O)O)c2)cc1 |  |  | 22.7 µM (active) |  |
| O=C1N=C(c2ccccc2)C(c2ccccc2)N1 (centres undefined) | 0.318 µM (active) |  |  |  |
| O=C(O)CCc1ccc(-c2cccs2)n1NC(=O)c1ccccc1Br | 6.95 µM (active) |  |  |  |
| Cc1ccc(-c2nnn[nH]2)cc1 |  | > 260 µM (inactive) |  |  |
| Cc1ccc(Nc2nc(CSc3nnnn3C)cs2)cc1 | 1.54 µM (active) |  |  |  |
| COc1ccc(CC(=O)N2CCN=C2SCc2ccc([N+](=O)[O-])cc2)cc1 | < 0.005 µM (active) |  |  |  |
| Cc1ccc(Nc2nc(CSc3nnc(-c4ccncc4)n3-c3ccccc3C)cs2)cc1 |  |  |  | EC50 [8]: 4.95 µM (active); EC50 [3]: > 60 µM (inconclusive); EC50 [4]: 2470 nM (active); EC50 [9]: > 160 µM (inactive) |
| O=C(Nc1cccn(Cc2c(Cl)cccc2Cl)c1=O)c1ccccc1Cl |  | > 260 µM (inactive) |  |  |
| C=CCN1C(=O)NC(=O)/C(=C(/C)NC2CCN(Cc3ccccc3)CC2)C1=O |  |  | > 195 µM (not active) |  |
| Cc1cc(NC(=O)COC(=O)[C@H](C)NC(=O)c2ccccc2)no1 |  |  | > 195 µM (not active) |  |
| CC(Sc1nc(-c2ccccc2)cc(C(F)(F)F)n1)C(=O)Nc1sc2c(c1C#N)CCC2 (centres undefined) |  | > 260 µM (inactive) |  | EC50 [3]: > 60 µM (not active); EC50 [4]: 137 nM (active) |
| CN(C)CCNC(=O)C(=O)NCC(c1ccc2c(c1)OCO2)N1CCN(c2ccc(F)cc2)CC1 (centres undefined) | 0.439 µM (active) |  |  |  |
| N#Cc1ccc(OCCN2CCc3ccccc3C2)cc1 |  | > 260 µM (inactive) |  |  |
| Cc1ccc(CC2SC(N=C(N)N)=NC2=O)cc1 (centres undefined) |  | > 260 µM (inactive) |  |  |
| CC1=NN(c2ccccc2)C(=O)C1c1ccccc1 (centres undefined) | 2.86 µM (active) |  |  |  |
| CCN(CC)S(=O)(=O)c1cccc(C(=O)N/N=C/c2cc(OC)c(O)c(OC)c2)c1 | 0.21 µM (active) |  |  |  |
| O=C(N/N=C/c1cccc(C(F)(F)F)c1)c1ccc(O)cc1 |  |  | > 195 µM (not active) |  |
